biological target: T1, hGPR120 (Homo sapiens, UniProt Q5NUL3); experiment: Measurement of Activity of GPR120 Agonist (Cell-Based Assay), Calcium 5 dye fluorescence; conditions: CHO-K1 cells expressing Ga16 and hGPR120
T1 construct: expressed in transfected cells; host or cells: CHO-K1
T1 sequence (Q5NUL3 1-361): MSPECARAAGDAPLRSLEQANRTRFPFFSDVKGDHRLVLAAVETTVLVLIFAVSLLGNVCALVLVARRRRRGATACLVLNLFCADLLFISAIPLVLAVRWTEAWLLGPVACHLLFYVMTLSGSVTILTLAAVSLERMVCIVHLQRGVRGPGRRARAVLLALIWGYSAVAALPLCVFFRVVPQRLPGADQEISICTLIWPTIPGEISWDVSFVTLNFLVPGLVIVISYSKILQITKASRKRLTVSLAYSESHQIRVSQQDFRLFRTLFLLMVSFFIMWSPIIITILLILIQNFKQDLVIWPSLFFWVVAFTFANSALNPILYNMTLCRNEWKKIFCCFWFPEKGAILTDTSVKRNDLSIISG
How it was run: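 CHO-K1 cells co-expressing Gα16 and hGPR120, plated 18 h, loaded 1 h at 37°C with Calcium 5 dye. Serially diluted agonists added at 0.5% DMSO final; fluorescence read at Ex 485/Em 525 nm and expressed as relative % of DMSO-only signal.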

Row | SMILES | EC50
1 | O=C(O)CCCOc1c(F)cc(-c2nccc(OC3CCC3)n2)cc1F [Example 420, 4-[4-(4-cyclobutoxy-pyrimidin-2-yl)-2,6-difluoro-phenoxy]-butyric acid] | < 200 nM
2 | O=C(O)CCCOc1c(F)cc(-c2ccnc(OC3CCC3)n2)cc1F [Example 421, 4-[4-(2-cyclobutoxy-pyrimidin-4-yl)-2,6-difluoro-phenoxy]-butyric acid] | < 200 nM
3 | O=C(O)CCCOc1c(F)cc(-c2nccc(OC3CCC3)n2)cc1Cl [Example 422, 4-[2-chloro-4-(4-cyclobutoxy-pyrimidin-2-yl)-6-fluoro-phenoxy]-butyric acid] | < 200 nM
4 | O=C(O)CCCOc1c(F)cc(-c2ccnc(OC3CCC3)n2)cc1Cl [Example 423, 4-[2-chloro-4-(2-cyclobutoxy-pyrimidin-4-yl)-6-fluoro-phenoxy]-butyric acid] | < 200 nM
5 | O=C(O)CCCOc1c(F)cc(-c2cc(OC3CCC3)cc(Cl)n2)cc1Cl [Example 424, 4-[2-chloro-4-(6-chloro-4-cyclobutoxy-pyridin-2-yl)-6-fluoro-phenoxy]-butyric acid] | < 200 nM
6 | Cc1cc(OC2CCC2)nc(-c2cc(F)c(OCCCC(=O)O)c(F)c2)n1 [Example 425, 4-[4-(4-cyclobutoxy-6-methyl-pyrimidin-2-yl)-2,6-difluoro-phenoxy]-butyric acid] | < 200 nM
7 | O=C(O)CCCOc1c(F)cc(-c2csc(OC3CCC3)n2)cc1Cl [Example 426, 4-[2-chloro-4-(2-cyclobutoxy-thiazol-4-yl)-6-fluoro-phenoxy]-butyric acid] | < 200 nM
8 | Cc1cc(OC2CCC2)nc(-c2cc(F)c(OCCCC(=O)O)c(Cl)c2)c1 [Example 429, 4-[2-chloro-4-(6-cyclobutoxy-4-methyl-pyridin-2-yl)-6-fluoro-phenoxy]-butyric acid] | < 200 nM
9 | O=C(O)CCCOc1c(F)cc(-c2cncc(OC3CCC3)n2)cc1Cl [Example 430, 4-[2-chloro-4-(6-cyclobutoxy-pyrazin-2-yl)-6-fluoro-phenoxy]-butyric acid] | < 200 nM
10 | CC(C)Oc1cncc(-c2cc(F)c(OCCCC(=O)O)c(Cl)c2)n1 [Example 436, 4-[2-chloro-6-fluoro-4-(6-isopropoxy-pyrazin-2-yl)-phenoxy]-butyric acid] | < 200 nM
11 | CCOc1cncc(-c2cc(F)c(OCCCC(=O)O)c(Cl)c2)n1 [Example 437, 4-[2-chloro-4-(6-ethoxy-pyrazin-2-yl)-6-fluoro-phenoxy]-butyric acid] | < 200 nM
12 | O=C(O)CCC1CCc2cc(-c3cccc(OC4CCC4)n3)ccc2S1 (stereo not shown) [Example 441, 3-[6-[6-(cyclobutoxy)-2-pyridyl]thiochroman-2-yl]propanoic acid] | < 200 nM
13 | O=C(O)CCC1CCc2cc(-c3cccc(OC4CCC4)n3)ccc2O1 (stereo not shown) [Example 444, 3-[6-[6-(cyclobutoxy)-2-pyridyl]chroman-2-yl]propanoic acid] | < 200 nM
14 | O=C(O)CCC1CCc2cc(-c3cccc(OC4CCCC4)c3)ccc2O1 (stereo not shown) [Example 448, 3-[6-[3-(cyclopentoxy)phenyl]chroman-2-yl]propanoic acid] | < 200 nM
15 | COc1ccc(-c2cc(F)c(OCCCC(=O)O)c(F)c2)nc1OC1CCC1 [Example 455, 4-[4-[6-(cyclobutoxy)-5-methoxy-2-pyridyl]-2,6-difluoro-phenoxy]butanoic acid] | < 200 nM
16 | COc1ccc(-c2cc(F)c(N(C)CCCC(=O)O)c(F)c2)nc1OC1CCC1 [Example 456, 4-[4-[6-(cyclobutoxy)-5-methoxy-2-pyridyl]-2,6-difluoro-N-methyl-anilino]butanoic acid] | < 200 nM
17 | COc1ccc(-c2cc(F)c(N3CCC(CC(=O)O)CC3)c(F)c2)nc1OC1CCC1 [Example 457, 2-[1-[4-[6-(cyclobutoxy)-5-methoxy-2-pyridyl]-2,6-difluoro-phenyl]-4-piperidyl]acetic acid] | 200 to 2000 nM

The remaining lines, values ahead:

Row | EC50 | SMILES
18 | < 200 nM | O=C(O)CCCOc1c(F)cc(-c2csc(OCC3CC3)n2)cc1Cl [Example 427, 4-[2-chloro-4-(2-cyclopropylmethoxy-thiazol-4-yl)-6-fluoro-phenoxy]-butyric acid]
19 | < 200 nM | O=C(O)CCCOc1c(F)cc(-c2nccc(OCC3CC3)n2)cc1Cl [Example 428, 4-[2-chloro-4-(4-cyclopropylmethoxy-pyrimidin-2-yl)-6-fluoro-phenoxy]-butyric acid]
20 | < 200 nM | O=C(O)CCCOc1c(F)cc(-c2cncc(OCC3CC3)n2)cc1Cl [Example 431, 4-[2-chloro-4-(6-cyclopropylmethoxy-pyrazin-2-yl)-6-fluoro-phenoxy]-butyric acid]
21 | < 200 nM | Cc1cc(OCC2CC2)nc(-c2cc(F)c(OCCCC(=O)O)c(F)c2)n1 [Example 432, 4-[4-(4-cyclopropylmethoxy-6-methyl-pyrimidin-2-yl)-2,6-difluoro-phenoxy]-butyric acid]
22 | < 200 nM | O=C(O)CCCOc1c(F)cc(-c2nccc(OCC3CC3)n2)cc1F [Example 433, 4-[4-(4-cyclopropylmethoxy-pyrimidin-2-yl)-2,6-difluoro-phenoxy]-butyric acid]
23 | < 200 nM | O=C(O)CCCOc1c(F)cc(-c2cncc(OCC3CC3)n2)cc1F [Example 434, 4-[4-(6-cyclopropylmethoxy-pyrazin-2-yl)-2,6-difluoro-phenoxy]-butyric acid]
24 | < 200 nM | Cc1cc(OCC2CC2)nc(-c2cc(F)c(OCCCC(=O)O)c(Cl)c2)c1 [Example 435, 4-[2-chloro-4-(6-cyclopropylmethoxy-4-methyl-pyridin-2-yl)-6-fluoro-phenoxy]-butyric acid]
25 | < 200 nM | O=C(O)C[C@H]1CCN(c2c(F)cc(-c3cccc(OCC4CC4)n3)cc2F)C1 [Example 438, {(R)-1-[4-(6-cyclopropylmethoxy-pyridin-2-yl)-2,6-difluoro-phenyl]-pyrrolidin-3-yl}-acetic acid]
26 | 200 to 2000 nM | O=C(O)CC1CCN(c2c(F)cc(-c3cccc4c3OC(F)(F)O4)cc2F)CC1 [Example 439, {1-[4-(2,2-difluoro-benzo[1,3]dioxol-4-yl)-2,6-difluoro-phenyl]-piperidin-4-yl}-acetic acid]
27 | 200 to 2000 nM | CC(C)Sc1ncccc1-c1cc(F)c2c(c1)CCC(CCC(=O)O)S2 (stereo not shown) [Example 440, 3-[8-fluoro-6-(2-isopropylsulfanyl-3-pyridyl)thiochroman-2-yl]propanoic acid]
28 | 200 to 2000 nM | COc1ccc(-c2cc(F)c(C3CC3CCC(=O)O)c(F)c2)c2c1OC(C)(C)C2 (stereo not shown) [Example 442, 3-[2-[2,6-difluoro-4-(7-methoxy-2,2-dimethyl-3H-benzofuran-4-yl)phenyl]cyclopropyl]propanoic acid]
29 | 200 to 2000 nM | O=C(O)CCC1CC1c1c(F)cc(-c2cccc3c2OC2(CCCC2)C3)cc1F (stereo not shown) [Example 443, 3-[2-(2,6-difluoro-4-spiro[3H-benzofuran-2,1′-cyclopentan]-7-yl-phenyl)cyclopropyl]propanoic acid]
30 | < 200 nM | O=C(O)CCC1CCc2cc(-c3cccc(OCC4CC4)n3)ccc2O1 (stereo not shown) [Example 445, 3-[6-[6-(cyclopropylmethoxy)-2-pyridyl]chroman-2-yl]propanoic acid]
31 | 200 to 2000 nM | COc1cccc(-c2cc(F)c(OCCCC(=O)O)c(F)c2)c1OC [Example 446, 4-[4-(2,3-dimethoxyphenyl)-2,6-difluoro-phenoxy]butanoic acid]
32 | < 200 nM | O=C(O)CCC1CCc2cc(-c3cccc(OCC4CC4)c3)ccc2O1 (stereo not shown) [Example 447, 3-[6-[3-(cyclopropylmethoxy)phenyl]chroman-2-yl]propanoic acid]
33 | < 200 nM | CN(CCCC(=O)O)c1c(F)cc(-c2cccc3c2OC2(CCCC2)O3)cc1F [Example 449, 4-(2,6-difluoro-N-methyl-4-spiro[1,3-benzodioxol-2,1′-cyclopentan]-4-yl-anilino)butanoic acid]
34 | < 200 nM | CC(CCCC(=O)O)c1c(F)cc(-c2cccc3c2OC2(CCCC2)O3)cc1F (stereo not shown) [Example 450, 5-(2,6-difluoro-4-spiro[1,3-benzodioxol-2,1′-cyclopentan]-4-yl-phenyl)hexanoic acid]
35 | < 200 nM | CC(C)(C)Sc1cccc(-c2ccc3c(c2)CCC(CCC(=O)O)O3)n1 (stereo not shown) [Example 451, 3-[6-(6-tert-butylsulfanyl-2-pyridyl)chroman-2-yl]propanoic acid]
36 | < 200 nM | CC(C)Oc1cccc(-c2ccc3c(c2)CCC(CCC(=O)O)O3)n1 (stereo not shown) [Example 452, 3-[6-(6-isopropoxy-2-pyridyl)chroman-2-yl]propanoic acid]
37 | 200 to 2000 nM | O=C(O)CC1CCN(c2c(F)cc(-c3cccc4c3OC3(CCCC3)O4)cc2F)CC1 [Example 453, 2-[1-(2,6-difluoro-4-spiro[1,3-benzodioxol-2,1′-cyclopentan]-4-yl-phenyl)-4-piperidyl]acetic acid]
38 | < 200 nM | CCCOc1cccc(-c2cc(F)c(OCCCC(=O)O)c(F)c2)c1OCCC [Example 454, 4-[4-(2,3-dipropoxyphenyl)-2,6-difluoro-phenoxy]butanoic acid]
39 | 200 to 2000 nM | CCCOc1cccc(-c2cc(F)c(N3CCC(CC(=O)O)CC3)c(F)c2)c1OCCC [Example 458, 2-[1-[4-(2,3-dipropoxyphenyl)-2,6-difluoro-phenyl]-4-piperidyl]acetic acid]
40 | < 200 nM | COc1ccc(-c2cc(F)c(OCCCC(=O)O)c(F)c2)nc1OCC1CC1 [Example 459, 4-[4-[6-(cyclopropylmethoxy)-5-methoxy-2-pyridyl]-2,6-difluoro-phenoxy]butanoic acid]
